We go through 15 compounds from paper PMC6627454, “Size and Flexibility Define the Inhibition of the H3N2 Influenza Endonuclease Enzyme by Calix[n]arenes” (Antibiotics, 2019).

In the first test the target is H3N2 influenza PA endonuclease (Influenza A virus, UniProt P31343). As to the kind of experiment: PA endonuclease inhibition assay (λ-DNA digestion, agarose gel electrophoresis). Format: biochemical, Influenza A/Victoria/3/1975 (H3N2). Particulars: 0.5 µg λ-DNA, PA endonuclease 0.5 mg/mL, 1 h at 37 °C, 1 mM MnCl2, pH 8; 3 measurements. How it is done: The digestion activity of the purified PA endonuclease was quantified using agarose gel electrophoresis. A concentration range of PA endonuclease (0.5 mg/mL to 0.5 µg/mL) was mixed with 0.5 µg of λ-DNA (Takara, Japan) in buffer at a final concentration of 20 mM Tris HCl pH 8, 100 mM NaCl, 1 mM MnCl2, 10 mM β-mercaptoethanol. After one hour of incubation at 37 °C, the samples were deposited on ethidium bromide treated agarose gel 0.6% and run during 90 minutes at 75 V. The gel was then scanned (Figure S2). 100 µM solutions of each macrocyclic molecules (Scheme 1) were mixed with 0.5 µg of buffered λ-DNA. This mixture was then combined with the PA endonuclease enzyme and incubated for 1 hour at 37 °C. The samples were deposited on agarose gel 0.6% previously mixed with ethidium bromide and run during 90 minutes at 75 V, after which the gel was scanned. Digestion activity was plotted as a function of inhibitor concentration by quantifying the intensity of the digested bands with ImageJ software. The IC50 values were calculated as in our work on endonuclease inhibition. The intensity of λ-DNA bands was subtracted from negative control (λ-DNA lane) and then normalized from the positive control (λ-DNA and PA protein lane without inhibitor).
100 µM of each macrocyclic molecules β-CDsul, SC[n]a, SC[n]b, and SC[n]c (Figure 1) have been mixed to 0.5 µg of λ-DNA in a buffer at final concentration of 20 mM Tris HCl pH 8, 100 mM NaCl, 1 mM MnCl2, 10 mM β-mercaptoethanol.
The mixture was then mixed with the PA endonuclease enzyme at 0.5 mg/mL and incubated for 1 h at 37 °C.
The samples have been deposited on agarose gel 0.6% previously mixed with ethidium bromide and run over 90 min at 75 V. The gel was then scanned on the ChemiDoc XRS system (Bio-Rad).
The digestion activity is then plotted as a matter of inhibitor concentration by quantifying the intensity of the digested bands with ImageJ software.
As to `O=S(=O)(O)CCCOc1c2cc(S(=O)(=O)O)cc1Cc1cc(S(=O)(=O)O)cc(c1OCCCS(=O)(=O)O)Cc1cc(S(=O)(=O)O)cc(c1OCCCS(=O)(=O)O)Cc1cc(S(=O)(=O)O)cc(c1OCCCS(=O)(=O)O)Cc1cc(S(=O)(=O)O)cc(c1OCCCS(=O)(=O)O)Cc1cc(S(=O)(=O)O)cc(c1OCCCS(=O)(=O)O)C2` [SC6c], the IC50 – broadly, the concentration that gives 50% inhibition – is more than 100 µM.

Turning to `O=S(=O)(O)OC[C@H]1O[C@@H]2O[C@H]3[C@H](OS(=O)(=O)O)[C@@H](OS(=O)(=O)O)[C@@H](O[C@H]4[C@H](OS(=O)(=O)O)[C@@H](OS(=O)(=O)O)[C@@H](O[C@H]5[C@H](OS(=O)(=O)O)[C@@H](OS(=O)(=O)O)[C@@H](O[C@H]6[C@H](OS(=O)(=O)O)[C@@H](OS(=O)(=O)O)[C@@H](O[C@H]7[C@H](OS(=O)(=O)O)[C@@H](OS(=O)(=O)O)[C@@H](O[C@H]8[C@H](OS(=O)(=O)O)[C@@H](OS(=O)(=O)O)[C@@H](O[C@H]1[C@H](OS(=O)(=O)O)[C@H]2OS(=O)(=O)O)O[C@@H]8COS(=O)(=O)O)O[C@@H]7COS(=O)(=O)O)O[C@@H]6COS(=O)(=O)O)O[C@@H]5COS(=O)(=O)O)O[C@@H]4COS(=O)(=O)O)O[C@@H]3COS(=O)(=O)O` [CD, Sulfated β-cyclodextrin, reference compound], the IC50 was more than 100 µM.

Compound `O=S(=O)(O)CCCOc1c2cc(S(=O)(=O)O)cc1Cc1cc(S(=O)(=O)O)cc(c1OCCCS(=O)(=O)O)Cc1cc(S(=O)(=O)O)cc(c1OCCCS(=O)(=O)O)Cc1cc(S(=O)(=O)O)cc(c1OCCCS(=O)(=O)O)Cc1cc(S(=O)(=O)O)cc(c1OCCCS(=O)(=O)O)Cc1cc(S(=O)(=O)O)cc(c1OCCCS(=O)(=O)O)Cc1cc(S(=O)(=O)O)cc(c1OCCCS(=O)(=O)O)Cc1cc(S(=O)(=O)O)cc(c1OCCCS(=O)(=O)O)C2` [SC8c] came in with an IC50 of 18.7 ± 0.7 µM.

In the case of `O=S(=O)(O)c1cc2c(O)c(c1)Cc1cc(S(=O)(=O)O)cc(c1O)Cc1cc(S(=O)(=O)O)cc(c1O)Cc1cc(S(=O)(=O)O)cc(c1O)C2` [SC4a, para-sulfonato-calix[4]arene], the IC50 was more than 100 µM.

For `O=P(O)(O)Oc1c2cccc1Cc1cccc(c1O)Cc1cccc(c1OP(=O)(O)O)Cc1cccc(c1O)C2` [C4diP, Calix[4]arene dihydroxyphosphonic acid], the IC50 was more than 100 µM.

Regarding `O=S(=O)(O)CCCOc1c2cccc1Cc1cccc(c1OCCCS(=O)(=O)O)Cc1cccc(c1OCCCS(=O)(=O)O)Cc1cccc(c1OCCCS(=O)(=O)O)C2` [SC4b], the 50% inhibitory concentration (IC50) is more than 100 µM.

`O=S(=O)(O)c1cc2c(O)c(c1)Cc1cc(S(=O)(=O)O)cc(c1O)Cc1cc(S(=O)(=O)O)cc(c1O)Cc1cc(S(=O)(=O)O)cc(c1O)Cc1cc(S(=O)(=O)O)cc(c1O)Cc1cc(S(=O)(=O)O)cc(c1O)Cc1cc(S(=O)(=O)O)cc(c1O)Cc1cc(S(=O)(=O)O)cc(c1O)C2` [SC8a, para-sulfonato-calix[8]arene]: half-maximal inhibition (IC50) required 6.4 ± 1.4 µM.

`O=S(=O)(O)CCCOc1c2cccc1Cc1cccc(c1OCCCS(=O)(=O)O)Cc1cccc(c1OCCCS(=O)(=O)O)Cc1cccc(c1OCCCS(=O)(=O)O)Cc1cccc(c1OCCCS(=O)(=O)O)Cc1cccc(c1OCCCS(=O)(=O)O)Cc1cccc(c1OCCCS(=O)(=O)O)Cc1cccc(c1OCCCS(=O)(=O)O)C2` [SC8b] yielded a half-maximal inhibitory concentration (IC50) of 14 ± 2.2 µM.

`O=S(=O)(O)CCCOc1c2cc(S(=O)(=O)O)cc1Cc1cc(S(=O)(=O)O)cc(c1OCCCS(=O)(=O)O)Cc1cc(S(=O)(=O)O)cc(c1OCCCS(=O)(=O)O)Cc1cc(S(=O)(=O)O)cc(c1OCCCS(=O)(=O)O)C2` [SC4c] came in with a 50% inhibitory concentration (IC50) of more than 100 µM.

`O=S(=O)(O)c1cc2c(O)c(c1)Cc1cc(S(=O)(=O)O)cc(c1O)Cc1cc(S(=O)(=O)O)cc(c1O)Cc1cc(S(=O)(=O)O)cc(c1O)Cc1cc(S(=O)(=O)O)cc(c1O)Cc1cc(S(=O)(=O)O)cc(c1O)C2` [SC6a] came in with an IC50 of 11.2 ± 3.6 µM.

The compound `O=S(=O)(O)CCCOc1c2cccc1Cc1cccc(c1OCCCS(=O)(=O)O)Cc1cccc(c1OCCCS(=O)(=O)O)Cc1cccc(c1OCCCS(=O)(=O)O)Cc1cccc(c1OCCCS(=O)(=O)O)Cc1cccc(c1OCCCS(=O)(=O)O)C2` [SC6b] showed an IC50 of more than 100 µM.

Still in this test, the particulars now being: macrocycle at 100 µM.
Consider `O=S(=O)(O)c1cc2c(O)c(c1)Cc1cc(S(=O)(=O)O)cc(c1O)Cc1cc(S(=O)(=O)O)cc(c1O)Cc1cc(S(=O)(=O)O)cc(c1O)C2` [SC4a, para-sulfonato-calix[4]arene], for which the “inhibitory effect on PA endonuclease” value is “neither SC4 and its derivatives nor C4diP show any inhibitory effects”.

As to `O=P(O)(O)Oc1c2cccc1Cc1cccc(c1O)Cc1cccc(c1OP(=O)(O)O)Cc1cccc(c1O)C2` [C4diP, Calix[4]arene dihydroxyphosphonic acid], the “inhibitory effect on PA endonuclease” value was “neither SC4 and its derivatives nor C4diP show any inhibitory effects”.

In the next test the test system is PA endonuclease.
Assay: not given
Particulars: PA endonuclease, in vitro assays only; read-out: Inhibition Activity IC50; cited from earlier work.
Turning to `O=c1[nH]cncc1O` [5-hydroxypyrimidin-4(3H)-one], the IC50 was 0.15 µM.

Regarding `O=C(O)c1c[nH]cc(O)c1=O` [5-hydroxy-4-pyridone-3-carboxy acid], the half-maximal inhibitory concentration (IC50) was 3.23 µM.

The same test, now with this note: PA endonuclease; read-out: Inhibition Activity IC50; cited from earlier work.
Regarding `O=C1c2c(O)c(=O)ccn2N([C@@H]2c3ccccc3SCc3c2ccc(F)c3F)[C@@H]2COCCN12` [Baloxavir Acid], the IC50 is 0.00023 µM.

The same test, now with this note: in vitro assay, viral PA polymerase unit; read-out: IC50; cited from earlier work.
As for `O=C1c2c(O)c(=O)ccn2N([C@@H]2c3ccccc3SCc3c2ccc(F)c3F)[C@@H]2COCCN12` [Baloxavir Acid], the half-maximal inhibitory concentration (IC50) was 0.0025 µM.

The test system of a further test is influenza virus.
Assay: not given
Set-up: method as in PMID 30184455. Particulars: clinical trials, compared to oseltamivir; cited from earlier work.
As to `COC(=O)OCOc1c2n(ccc1=O)N([C@@H]1c3ccccc3SCc3c1ccc(F)c3F)[C@@H]1COCCN1C2=O` [Baloxavir Marboxil], the “reduction in viral loads” value is “greater reduction in viral loads”.
